These results are taken from patent publication US20110237500A1, “CECROPIN-MAGAININ HYBRID PEPTIDES” (priority 2008, published 2011).

Holding throughout (format): cell-based
For test [1], the system named is Y. pseudotuberculosis IP32593. Also noted: key: —: No effect (i.e. no significant difference between control [culture with no peptide] and culture with peptide); *: ~1 log effect (i.e. culture with peptide that's growth was ~1 log less than control); **: 1-2 log effect; ***: 2-4 log effect; ****: >4 log effect; “”: “Immediate effect” (i.e. loss of growth by at least 1 log compared to control immediately on addition of peptide [T = 0]).

The test system of another test is F. novicida U112. The arrangement: key: —: No effect (i.e. no significant difference between control [culture with no peptide] and culture with peptide); *: ~1 log effect (i.e. culture with peptide that's growth was ~1 log less than control); **: 1-2 log effect; ***: 2-4 log effect; ****: >4 log effect; “”: “Immediate effect” (i.e. loss of growth by at least 1 log compared to control immediately on addition of peptide [T = 0]).

The test system of another test is S. aureus ATCC29213. Put plainly: Viable count (CFU/ml) time-kill assay of peptides with bacteria. The following applies: 102 μg/ml peptide, 37° C., growth versus PBS control.
The next test concerns B. thailandensis E264. Also noted: key: —: No effect (i.e. no significant difference between control [culture with no peptide] and culture with peptide); *: ~1 log effect (i.e. culture with peptide that's growth was ~1 log less than control); **: 1-2 log effect; ***: 2-4 log effect; ****: >4 log effect; “”: “Immediate effect” (i.e. loss of growth by at least 1 log compared to control immediately on addition of peptide [T = 0]).

In a further test the test system is F. tularensis LVS. Also noted: key: —: No effect (i.e. no significant difference between control [culture with no peptide] and culture with peptide); *: ~1 log effect (i.e. culture with peptide that's growth was ~1 log less than control); **: 1-2 log effect; ***: 2-4 log effect; ****: >4 log effect; “”: “Immediate effect” (i.e. loss of growth by at least 1 log compared to control immediately on addition of peptide [T = 0]).

As for GIGKFLHSAKKFGKAFVGEIMNS [Magainin II], the “Effect of peptides after 4 hours incubation with bacteria: Y. pseudotuberculosis IP32593” value in test [1] is recorded as “—”. In the test with F. novicida U112, the “Effect of peptides after 4 hours incubation with bacteria: F. novicida U112” value is recorded as “—”. Moreover, the “Effect of peptides after 4 hours incubation with bacteria: S. aureus ATCC29213” value in the test on S. aureus ATCC29213 is “**** (>4 log effect)”. For the same sequence, the “Effect of peptides after 4 hours incubation with bacteria: B. thailandensis E264” value with B. thailandensis E264 is on record as “—”. Also, the “Effect of peptides after 4 hours incubation with bacteria: F. tularensis LVS” value in the test with F. tularensis LVS is recorded as “—”.
